Paper PMC5045831 (Drugs in R&D, 2016)
Like-named read-outs stand apart in the source and are kept apart here.

Key:
[1] = cited from earlier work
[2] = cited from earlier work; remark: listed apart in the source
[3] = assay type: in vivo, human
Evaluation of safety = assay type: in vivo, human; conditions: single oral 50 mg with water, lemon or Seville orange juice; nine subjects
[4] = cited from earlier work; remark: listed apart in the source
[5] = Seville orange juice, healthy volunteers
[6] = Seville orange juice compared with water

Structure (SMILES): COc1ccc2c(c1)[C@]13CCCC[C@@H]1[C@H](C2)N(C)CC3 [dextromethorphan]
- change in bioavailability ([1]; with Seville orange juice, effects lasted 3 days): increased significantly

Structure (SMILES): COc1cc2c(c(OC)c1OC)-c1ccc(OC)c(=O)cc1[C@@H](NC(C)=O)CC2 [colchicine]
- decrease in AUC [1, 5]: 20%
- decrease in Cmax [1, 5]: 24%
- delay in Tmax [1, 5]: 1 h

Structure (SMILES): CCOC(=O)C1=C(C)NC(C)=C(C(=O)OC)C1c1cccc(Cl)c1Cl (centres unmarked) [felopdipine]
- increase in AUC ([2]; with Seville orange): 93%
- increase in AUC ([2]; with grapefruit): 76%

Structure (SMILES): CCCc1nn(C)c2c(=O)[nH]c(-c3cc(S(=O)(=O)N4CCN(C)CC4)ccc3OCC)nc12 [sildenafil]
- change in Tmax [3, 6]: non-significant changes
- increase in AUC0–∞ [3, 6]: 44%
- increase in Cmax [3, 6]: 8%
- reduction of apparent oral clearance (CL/F) [3, 6]: 30%
- Tmax ([3]; male, human, plasma, po, 50 mg): ~1 h
- adverse effects reported (Evaluation of safety): without reporting any adverse effect
- change in bioavailability ([4]; co-administration of ciprofloxacin and clarithromycin): significantly increases
- increase in bioavailability and AUC ([4]; with grapefruit juice, Cmax unaffected): 23%
